“And” between values parts separate entries of the source, which are not always exact repeats. Identical values can stand only once.
Assays:
PDGFRb = target: T1, PDGFRb (Homo sapiens, UniProt P09619); experiment: KINOMEscan competition binding, PDGFRb; settings: 10 µM compound; for remaining binding at 10 µM: lower = stronger binding, read-out: PDGFRb %Ctrl @ 10000nM (POC)
T1 construct: DNA label for qPCR read-out (T7 phage fusion or DNA tag); purchased Eurofins DiscoverX Corporation; host or cells: T7 phage in E. coli (BL21-derived) or HEK-293
T1 sequence (P09619 33-1106): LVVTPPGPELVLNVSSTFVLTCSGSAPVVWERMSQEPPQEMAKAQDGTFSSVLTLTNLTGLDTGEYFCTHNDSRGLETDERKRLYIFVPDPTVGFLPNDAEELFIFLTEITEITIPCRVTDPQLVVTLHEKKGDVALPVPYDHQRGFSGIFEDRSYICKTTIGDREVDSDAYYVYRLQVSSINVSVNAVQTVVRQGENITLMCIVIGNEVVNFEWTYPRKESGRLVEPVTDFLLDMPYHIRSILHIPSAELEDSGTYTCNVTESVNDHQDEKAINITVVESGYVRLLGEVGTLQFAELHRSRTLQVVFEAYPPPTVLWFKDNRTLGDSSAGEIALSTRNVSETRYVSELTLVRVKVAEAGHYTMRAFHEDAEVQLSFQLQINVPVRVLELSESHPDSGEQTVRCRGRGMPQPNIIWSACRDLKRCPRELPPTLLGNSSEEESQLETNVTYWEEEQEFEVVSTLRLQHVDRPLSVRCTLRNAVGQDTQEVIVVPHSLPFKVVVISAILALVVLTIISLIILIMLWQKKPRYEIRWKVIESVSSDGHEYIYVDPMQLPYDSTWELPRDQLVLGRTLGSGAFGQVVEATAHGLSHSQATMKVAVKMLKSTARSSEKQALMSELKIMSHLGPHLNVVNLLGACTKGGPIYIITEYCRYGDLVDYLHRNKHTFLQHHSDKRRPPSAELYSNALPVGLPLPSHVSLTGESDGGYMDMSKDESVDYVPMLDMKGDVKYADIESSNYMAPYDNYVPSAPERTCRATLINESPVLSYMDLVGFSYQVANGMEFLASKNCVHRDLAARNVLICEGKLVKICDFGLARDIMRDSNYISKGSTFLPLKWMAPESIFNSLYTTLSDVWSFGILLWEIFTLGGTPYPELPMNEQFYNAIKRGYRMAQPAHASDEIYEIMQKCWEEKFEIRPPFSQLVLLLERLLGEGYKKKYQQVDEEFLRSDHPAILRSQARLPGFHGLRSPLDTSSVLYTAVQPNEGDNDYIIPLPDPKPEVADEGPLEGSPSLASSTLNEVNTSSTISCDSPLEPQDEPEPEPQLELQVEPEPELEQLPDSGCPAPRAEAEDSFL
Procedure: (§1) The KINOMEscan screening platform (Eurofins DiscoverX Corporation) was performed using active site-directed competition binding assay to quantitatively measure interactions between BK40143 and BK40197 and more than 450 human kinases and disease relevant mutant variants. […] Screening “hits” are identified by measuring the amount of kinase captured in test (BK40143 and BK40197) versus control samples by using a quantitative and ultra-sensitive qRT-PCR method that detects the associated DNA label. BK40143 and BK40197 were screened at 10 µM concentration, and results for primary screen binding interactions were reported as “% Ctrl” (POC), where lower numbers indicate stronger hits and calculated as follows: [test compound signal−positive control signal/negative control signal−positive control signal]×100
(§2) negative control = DMSO (100% Ctrl)
(§3) positive control = control compound (0% Ctrl)
(§4) Based on screening data from of profiled compounds, a proportional relationship between primary screening results and corresponding compound/target affinities can be described as binding constants (Kd values) for the indicated ranges of POC values with tighter binding (higher affinity) interactions associated with lower POC values and weaker binding (lower affinity) associated with higher POC values. Briefly, kinase-tagged T7 phage strains were grown in parallel in 24-well blocks in an E. coli host derived from the BL21 strain. E. coli were grown to log-phase and infected with T7 phage from a frozen stock (multiplicity of infection = 0.4) and incubated with shaking at 32°C until lysis (90–150 min). The lysates were centrifuged (6,000g) and filtered (0.2 μm) to remove cell debris. The remaining kinases were produced in HEK-293 cells and subsequently tagged with DNA for qRT-PCR detection. Streptavidin-coated magnetic beads were treated with biotinylated small molecule ligands for 30 min at RT to generate affinity resins for kinase assays. The liganded beads were blocked with excess biotin and washed with blocking buffer (1% BSA, 0.05% Tween 20, 1 mM DTT; SeaBlock [Pierce]) to remove unbound ligand and to reduce non-specific phage binding. Binding reactions were assembled by combining kinases, liganded affinity beads, and test compounds in 1x binding buffer (20% 0.17x PBS, 0.05% Tween 20, 6 mM DTT; SeaBlock). Test compounds were prepared as 100x stocks in 100% DMSO and directly diluted into the assay. All reactions were performed in polypropylene 384-well plates in a final volume of 0.02 ml. The assay plates were incubated at RT with shaking for 1 h and the affinity beads were washed with wash buffer (1x PBS, 0.05% Tween 20). […] The kinase concentration in the eluates was measured by qRT-PCR.

p-ABL1 = target: T2, p-ABL1 (Homo sapiens, UniProt P00519); experiment: KINOMEscan competition binding, p-ABL1; settings: 10 µM compound; for remaining binding at 10 µM: lower = stronger binding, read-out: p-ABL1 %Ctrl @ 10000nM (POC)
T2 construct: DNA label for qPCR read-out (T7 phage fusion or DNA tag); purchased Eurofins DiscoverX Corporation; host or cells: T7 phage in E. coli (BL21-derived) or HEK-293
T2 sequence (P00519 whole entry, the tested form may be a part): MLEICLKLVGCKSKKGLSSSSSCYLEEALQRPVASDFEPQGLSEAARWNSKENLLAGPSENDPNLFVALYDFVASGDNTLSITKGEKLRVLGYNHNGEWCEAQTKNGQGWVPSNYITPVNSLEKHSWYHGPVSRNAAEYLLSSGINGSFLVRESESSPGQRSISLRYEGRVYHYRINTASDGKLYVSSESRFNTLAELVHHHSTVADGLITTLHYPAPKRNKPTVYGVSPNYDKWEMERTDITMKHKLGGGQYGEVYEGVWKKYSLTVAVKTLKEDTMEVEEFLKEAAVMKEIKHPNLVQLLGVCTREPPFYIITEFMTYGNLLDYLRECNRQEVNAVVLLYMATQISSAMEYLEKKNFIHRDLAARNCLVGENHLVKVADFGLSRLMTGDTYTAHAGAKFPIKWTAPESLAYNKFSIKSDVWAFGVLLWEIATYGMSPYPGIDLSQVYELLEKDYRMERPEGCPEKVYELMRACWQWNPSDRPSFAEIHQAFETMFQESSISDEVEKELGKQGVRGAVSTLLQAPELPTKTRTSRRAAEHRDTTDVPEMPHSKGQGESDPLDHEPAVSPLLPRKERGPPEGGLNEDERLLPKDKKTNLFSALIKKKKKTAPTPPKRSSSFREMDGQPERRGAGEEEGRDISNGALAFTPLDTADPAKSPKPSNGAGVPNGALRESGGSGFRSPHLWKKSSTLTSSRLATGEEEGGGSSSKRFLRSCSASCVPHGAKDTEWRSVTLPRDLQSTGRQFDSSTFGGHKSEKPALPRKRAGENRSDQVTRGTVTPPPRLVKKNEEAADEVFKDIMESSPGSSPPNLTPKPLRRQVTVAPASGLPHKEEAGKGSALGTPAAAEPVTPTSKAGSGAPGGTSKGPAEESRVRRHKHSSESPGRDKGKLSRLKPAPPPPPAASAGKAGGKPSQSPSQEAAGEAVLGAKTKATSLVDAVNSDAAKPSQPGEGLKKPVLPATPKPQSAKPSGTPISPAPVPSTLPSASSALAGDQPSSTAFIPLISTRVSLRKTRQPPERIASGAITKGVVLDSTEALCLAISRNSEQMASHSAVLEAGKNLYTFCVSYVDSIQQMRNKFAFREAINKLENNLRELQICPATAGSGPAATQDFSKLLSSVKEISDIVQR
Procedure: as §1, §2, §3, §4

FLT3 = target: T3, FLT3 (Homo sapiens, UniProt P36888); experiment: KINOMEscan competition binding, FLT3; settings: 10 µM compound; for remaining binding at 10 µM: lower = stronger binding, read-out: FLT3 %Ctrl @ 10000nM (POC)
T3 construct: DNA label for qPCR read-out (T7 phage fusion or DNA tag); purchased Eurofins DiscoverX Corporation; host or cells: T7 phage in E. coli (BL21-derived) or HEK-293
T3 sequence (P36888 27-993): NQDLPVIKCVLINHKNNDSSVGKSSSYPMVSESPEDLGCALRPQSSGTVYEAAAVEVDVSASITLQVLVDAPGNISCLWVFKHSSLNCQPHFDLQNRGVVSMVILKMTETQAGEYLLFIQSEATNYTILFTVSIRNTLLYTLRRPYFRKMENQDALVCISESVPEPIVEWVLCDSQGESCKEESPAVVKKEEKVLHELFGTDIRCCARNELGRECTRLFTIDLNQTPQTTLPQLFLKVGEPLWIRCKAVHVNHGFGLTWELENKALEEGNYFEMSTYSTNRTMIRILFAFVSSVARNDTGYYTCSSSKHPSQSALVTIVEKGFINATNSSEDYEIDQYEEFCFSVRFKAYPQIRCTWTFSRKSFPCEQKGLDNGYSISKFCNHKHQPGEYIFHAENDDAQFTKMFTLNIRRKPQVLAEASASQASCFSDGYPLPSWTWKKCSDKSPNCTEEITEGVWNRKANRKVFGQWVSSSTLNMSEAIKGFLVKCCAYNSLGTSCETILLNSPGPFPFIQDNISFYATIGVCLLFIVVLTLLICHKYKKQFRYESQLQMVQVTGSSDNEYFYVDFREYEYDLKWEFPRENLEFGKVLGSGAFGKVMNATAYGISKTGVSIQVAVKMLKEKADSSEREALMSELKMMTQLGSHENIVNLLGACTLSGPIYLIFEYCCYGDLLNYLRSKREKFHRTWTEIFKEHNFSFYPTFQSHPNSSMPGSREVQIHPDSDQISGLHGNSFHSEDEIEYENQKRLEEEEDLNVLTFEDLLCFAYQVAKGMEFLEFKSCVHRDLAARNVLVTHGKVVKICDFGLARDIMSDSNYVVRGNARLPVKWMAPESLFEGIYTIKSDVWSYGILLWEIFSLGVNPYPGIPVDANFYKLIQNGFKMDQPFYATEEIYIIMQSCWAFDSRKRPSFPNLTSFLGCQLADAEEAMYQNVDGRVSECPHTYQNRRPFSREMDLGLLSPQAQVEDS
Procedure: as §1, §2, §3, §4

mice = experiment: Novel object recognition, source data sheet NOR (mouse line not given); format: in vivo; parameters: key to Probe: DI (Discrimination Index: Novel / Total) / Familiarization: DI / Familiarization: DI, group mean / Familiarization DI: DI = novel-object exploration time / total exploration time of both objects; Familiarization: Total / Familiarization B / Familiarization Total: unit not given here; settings: for Probe DI: Discrimination Index: Novel / Total; for Probe DI / Familiarization Total / Familiarization B / Familiarization DI / Probe Familiar / Probe Total / Probe Novel / % Difference: one value per mouse; for Familiarization Total / Familiarization B / Familiarization DI / Probe Familiar / Probe Total / Probe Novel: novel object recognition; for Familiarization Total: A + B; for Familiarization B: object B; for Probe Familiar: familiar object; for Probe Total: novel + familiar; for Probe Novel: novel object; for % Difference: probe DI minus familiarization DI, Exclude trials where mice explored <1s; for Familiarization: A (exploration of object A) / Familiarization: B (exploration of object B) / Familiarization: DI / Familiarization: Total / Probe: DI (Discrimination Index: Novel / Total) / Probe: Familiar / Probe: Novel / Probe: Total: individual mice
Procedure: Novel object recognition was carried out using a 50 × 50 cm arena with clear walls covered by brown construction paper. Mice were habituated to the room for 30 min each day, before being allowed to freely explore the arena for 5 min two times, for 3 d. On the 4th d, two identical objects were placed in the arena in opposite adjacent corners, 10 cm from the corner of the arena. Mice were placed along the wall opposite from the objects and allowed to freely explore for 10 min. Approach behavior (extending nose toward the object) toward both objects was recorded manually using handheld stop watches and compared with ensure there was no preference for either neutral object. For the probe trial, one object was removed and replaced with a novel object, and mice were again allowed to freely explore for 10 min, with approach time towards the novel and familiar objects recorded. Trials in which the mice explored for less than 1 s were excluded. Discrimination index was calculated by dividing time spent exploring the novel object by total time exploring both objects and was compared for treated versus control animals.

Cc1cccc(-c2cc3nccc(N4CCOCC4)c3s2)c1 [BK40197]
inhibition at 10 µM (PDGFRb): 98.7%
remaining binding at 10 µM (PDGFRb): 1.3%
inhibition at 10 µM (p-ABL1): 63%
remaining binding at 10 µM (p-ABL1): 37%
inhibition at 10 µM (FLT3): 89%
remaining binding at 10 µM (FLT3): 11%
Probe DI (mice; listed as 197): 0.7189 and 0.4276 and 0.6036 and 0 and 0.3497 and 0.7629 and 0.5645
Familiarization Total (mice; listed as 197): 6.07 and 3.17 and 0.72 and 1.59 and 2.09 and 99.73 and 4.98 and 1.54 and 46.43
Familiarization B (mice; listed as 197): 4.54 and 2.11 and 0 and 0.44 and 2.09 and 67.09 and 3.73 and 0.91 and 31.96
Familiarization DI (mice; listed as 197): 0.2521 and 0.3344 and 1 and 0.7233 and 0 and 0.3273 and 0.251 and 0.4091 and 0.3117
Probe Familiar (mice; listed as 197): 3.8 and 3.44 and 1.78 and 0.31 and 0 and 59.03 and 0.92 and 1.62
Probe Total (mice; listed as 197): 13.52 and 6.01 and 4.49 and 0.31 and 0 and 90.78 and 3.88 and 3.72
Probe Novel (mice; listed as 197): 9.72 and 2.57 and 2.71 and 0 and 31.75 and 2.96 and 2.1
% Difference (mice; listed as 197): 46.6876% and 9.324% and -39.6437% and 2.2463% and 51.1883% and 15.5425%

Cc1cccc(-c2cc3nccc(Nc4ccccc4)c3s2)c1 [BK40143]
inhibition at 10 µM (PDGFRb): 99.9%
remaining binding at 10 µM (PDGFRb): 0.1%
inhibition at 10 µM (p-ABL1): 97.5%
remaining binding at 10 µM (p-ABL1): 2.5%
inhibition at 10 µM (FLT3): 95.3%
remaining binding at 10 µM (FLT3): 4.7%
Familiarization: DI, group mean (mice; 2.5mg/kg): 0.4194
Probe: DI, group mean (mice; 2.5mg/kg): 0.6322
Familiarization: A (exploration of object A) (mice; 2.5mg/kg, listed as 143): 79.74 and 23.94 and 6.51 and 4.1 and 1.73 and 91.39 and 3.94
Familiarization: B (exploration of object B) (mice; 2.5mg/kg, listed as 143): 36.19 and 20.07 and 19.62 and 23.82 and 2.46 and 58.89 and 9.8
Familiarization: DI (mice; 2.5mg/kg, listed as 143): 0.6878 and 0.544 and 0.2491 and 0.1468 and 0.4129 and 0.6081 and 0.2868
Familiarization: Total (mice; 2.5mg/kg, listed as 143): 115.93 and 44.01 and 26.13 and 27.92 and 4.19 and 150.28 and 13.74
Probe: DI (Discrimination Index: Novel / Total) (mice; 2.5mg/kg, listed as 143): 0.6527 and 0.5219 and 0.7012 and 0.6866 and 0 and 0.6684 and 0.5624
Probe: Familiar (mice; 2.5mg/kg, listed as 143): 12.56 and 26.64 and 26.04 and 10.96 and 0.71 and 19.02 and 21.52
Probe: Novel (mice; 2.5mg/kg, listed as 143): 23.6 and 29.08 and 61.12 and 24.01 and 0 and 38.34 and 27.66
Probe: Total (mice; 2.5mg/kg, listed as 143): 36.16 and 55.72 and 87.16 and 34.97 and 0.71 and 57.36 and 49.18
Familiarization: DI, group mean (mice; 5.0mg/kg): 0.4517
Probe: DI, group mean (mice; 5.0mg/kg): 0.5431
Familiarization: A (exploration of object A) (mice; 5.0mg/kg, listed as 143): 6.57 and 57.74 and 55.12 and 0 and 31.22 and 2.26 and 24.68 and 3.81
Familiarization: B (exploration of object B) (mice; 5.0mg/kg, listed as 143): 6.09 and 45.42 and 59.49 and 0 and 28.62 and 34.43 and 1.4 and 35.06 and 3.14
Familiarization: DI (mice; 5.0mg/kg, listed as 143): 0.519 and 0.5597 and 0.4809 and 0 and 0.4756 and 0.6175 and 0.4131 and 0.5482
Familiarization: Total (mice; 5.0mg/kg, listed as 143): 12.66 and 103.16 and 114.61 and 0 and 28.62 and 65.65 and 3.66 and 59.74 and 6.95
Probe: DI (Discrimination Index: Novel / Total) (mice; 5.0mg/kg, listed as 143): 0.5491 and 0.4762 and 0.6019 and 0.4523 and 0.4543 and 0.6392 and 0.6671 and 0.5538 and 0.5229 and 0.5147
Probe: Familiar (mice; 5.0mg/kg, listed as 143): 31.58 and 54.9 and 31.99 and 22.78 and 6.63 and 10.02 and 2.44 and 2.49 and 12.81 and 27.34
Probe: Novel (mice; 5.0mg/kg, listed as 143): 38.46 and 49.91 and 48.36 and 18.81 and 5.52 and 17.75 and 4.89 and 3.09 and 14.04 and 29
Probe: Total (mice; 5.0mg/kg, listed as 143): 70.04 and 104.81 and 80.35 and 41.59 and 12.15 and 27.77 and 7.33 and 5.58 and 26.85 and 56.34
Probe DI (mice; listed as 143): 0.8287 and 0.6842 and 0.7687 and 1 and 0 and 0.615 and 0.4318 and 0.5747 and 0.1499 and 0.6797
Familiarization Total (mice; listed as 143): 4.02 and 1.72 and 5.39 and 2.97 and 7.23 and 16.69 and 3.49 and 11.99 and 18.68 and 5.99
Familiarization B (mice; listed as 143): 4.02 and 0.91 and 0.51 and 1.41 and 5.2 and 7.29 and 2.89 and 7.23 and 11.16 and 3.62
Familiarization DI (mice; listed as 143): 0 and 0.4709 and 0.9054 and 0.5253 and 0.2808 and 0.5632 and 0.1719 and 0.397 and 0.4026 and 0.3957
Probe Familiar (mice; listed as 143): 0.62 and 0.78 and 0.31 and 0 and 0.83 and 2.41 and 0.5 and 20.09 and 39.82 and 2.04
Probe Total (mice; listed as 143): 3.62 and 2.47 and 1.34 and 5.82 and 0.83 and 6.26 and 0.88 and 47.24 and 46.84 and 6.37
Probe Novel (mice; listed as 143): 3 and 1.69 and 1.03 and 5.82 and 0 and 3.85 and 0.38 and 27.15 and 7.02 and 4.33
% Difference (mice; listed as 143): 82.8729% and 21.328% and -13.6724% and 47.4747% and 5.18% and 17.7727% and 28.4089%

Source: article PMC11249953, “c-KIT inhibitors reduce pathology and improve behavior in the Tg(SwDI) model of Alzheimer’s disease” (Life Science Alliance, 2024)
